Source: ChEMBL document CHEMBL1201862, “PubChem BioAssay data set” (2004)
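Dose response: 5 concentrations. Exposure: 48 h. Format: 96-well plates. Endpoint: linear interpolation; highest concentration if not reached. At the GI50, growth is halved.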 Activity calls are given as the source filed them. No stated cut-off is given here; in the data, active = GI50 up to about 1.1 µM and inactive = higher.

Assays:
Assay in all cases: growth of human tumour cells (NCI), 48 h
HOP-62 = tested on: HOP-62
UO-31 = tested on: UO-31
EKVX = tested on: EKVX
M14 = tested on: M14
T47D = tested on: T47D
UACC-62 = tested on: UACC-62
HT-29 = tested on: HT-29
RXF 393 = tested on: RXF 393
SF-539 = tested on: SF-539
NCI-H522 = tested on: NCI-H522
SW-620 = tested on: SW-620
OVCAR-8 = tested on: OVCAR-8
BT-549 = tested on: BT-549
MDA-MB-231 = tested on: MDA-MB-231
HCC 2998 = tested on: HCC 2998
OVCAR-5 = tested on: OVCAR-5
CCRF-CEM = tested on: CCRF-CEM
MDA-N = tested on: MDA-N
HCT-15 = tested on: HCT-15
A498 = tested on: A498
NCI-H460 = tested on: NCI-H460
HCT-116 = tested on: HCT-116
DU-145 = tested on: DU-145
ACHN = tested on: ACHN
U-251 = tested on: U-251
NCI-H23 = tested on: NCI-H23
UACC-257 = tested on: UACC-257
LOX IMVI = tested on: LOX IMVI
MOLT-4 = tested on: MOLT-4
SK-MEL-5 = tested on: SK-MEL-5
Hs-578T = tested on: Hs-578T
A549 = tested on: A549
MDA-MB-435 = tested on: MDA-MB-435
RPMI-8226 = tested on: RPMI-8226
SNB-19 = tested on: SNB-19
NCI/ADR-RES = tested on: NCI/ADR-RES
NCI-H226 = tested on: NCI-H226
PC-3 = tested on: PC-3
786-0 = tested on: 786-0
SF-268 = tested on: SF-268
OVCAR-4 = tested on: OVCAR-4
HL-60 = tested on: HL-60
MCF7 = tested on: MCF7
COLO 205 = tested on: COLO 205
TK-10 = tested on: TK-10
SK-OV-3 = tested on: SK-OV-3
IGROV-1 = tested on: IGROV-1
OVCAR-3 = tested on: OVCAR-3
SK-MEL-28 = tested on: SK-MEL-28
HOP-92 = tested on: HOP-92
SK-MEL-2 = tested on: SK-MEL-2
SN12C = tested on: SN12C
CAKI-1 = tested on: CAKI-1
K562 = tested on: K562
KM12 = tested on: KM12
SF-295 = tested on: SF-295

Compound: CC1=C(C(=O)NNC(=O)c2ccccc2)CC(C(=O)NNC(=O)c2ccccc2)=C(C)N1
- GI50 (HOP-62): > 100 µM (inactive)
- GI50 (UO-31): > 100 µM (inactive)
- GI50 (EKVX): > 100 µM (inactive)
- GI50 (M14): > 100 µM (inactive)
- GI50 (T47D): > 100 µM (inactive)
- GI50 (UACC-62): > 100 µM (inactive)
- GI50 (HT-29): > 100 µM (inactive)
- GI50 (RXF 393): > 100 µM (inactive)
- GI50 (SF-539): > 100 µM (inactive)
- GI50 (NCI-H522): > 100 µM (inactive)
- GI50 (SW-620): > 100 µM (inactive)
- GI50 (OVCAR-8): > 100 µM (inactive)
- GI50 (BT-549): > 100 µM (inactive)
- GI50 (MDA-MB-231): > 100 µM (inactive)
- GI50 (HCC 2998): > 100 µM (inactive)
- GI50 (OVCAR-5): > 100 µM (inactive)
- GI50 (CCRF-CEM): > 100 µM (inactive)
- GI50 (MDA-N): > 100 µM (inactive)
- GI50 (HCT-15): > 100 µM
- GI50 (A498): > 100 µM (inactive)
- GI50 (NCI-H460): 92.9 µM (inactive)
- GI50 (HCT-116): > 100 µM (inactive)
- GI50 (DU-145): > 100 µM (inactive)
- GI50 (ACHN): > 100 µM (inactive)
- GI50 (U-251): > 100 µM (inactive)
- GI50 (NCI-H23): > 100 µM (inactive)
- GI50 (UACC-257): > 100 µM (inactive)
- GI50 (LOX IMVI): > 100 µM (inactive)
- GI50 (MOLT-4): > 100 µM (inactive)
- GI50 (SK-MEL-5): > 100 µM (inactive)
- GI50 (Hs-578T): > 100 µM (inactive)
- GI50 (A549): > 100 µM (inactive)
- GI50 (MDA-MB-435): > 100 µM (inactive)
- GI50 (RPMI-8226): > 100 µM (inactive)
- GI50 (SNB-19): > 100 µM (inactive)
- GI50 (NCI/ADR-RES): > 100 µM (inactive)
- GI50 (NCI-H226): > 100 µM (inactive)
- GI50 (PC-3): > 100 µM (inactive)
- GI50 (786-0): > 100 µM (inactive)
- GI50 (SF-268): > 100 µM (inactive)
- GI50 (OVCAR-4): > 100 µM (inactive)
- GI50 (HL-60): > 100 µM (inactive)
- GI50 (MCF7): > 100 µM (inactive)
- GI50 (COLO 205): > 100 µM (inactive)
- GI50 (TK-10): > 100 µM (inactive)
- GI50 (SK-OV-3): > 100 µM (inactive)
- GI50 (IGROV-1): > 100 µM (inactive)
- GI50 (OVCAR-3): > 100 µM (inactive)
- GI50 (SK-MEL-28): > 100 µM (inactive)
- GI50 (HOP-92): > 100 µM (inactive)
- GI50 (SK-MEL-2): > 100 µM (inactive)
- GI50 (SN12C): > 100 µM (inactive)
- GI50 (CAKI-1): > 100 µM (inactive)
- GI50 (K562): > 100 µM (inactive)
- GI50 (KM12): > 100 µM (inactive)
- GI50 (SF-295): > 100 µM (inactive)
